Experimental data from patent publication US8247609B2, “Aminoacid derivatives containing a disulfanyl group in the form of mixed disulfanyl and aminopeptidase N inhibitors” (Pharamleads, priority 2005, dated 2012).
Like-named read-outs stand apart in the source and are kept apart here. Marks after values point to notes of the source that are not given here.

How the values were obtained:
[1] = Log Kow; format: physicochemical
[2] = test system: male OF1 mice; assay: Hot plate test (52° C., jump latency) in mice; format: in vivo, mouse; conditions: for ED50: Mus musculus
Protocol: Hot plate test: this test relates to the licking and jumping reflex in mice on a plate heated at 52° C. (measurement of jump latency in the examples given). The results are expressed in % of maximum possible effect (% MPE), i.e., expressed as a percentage of analgesia, using the following equation:
Maximum latency time=240 seconds.
The results are expressed in term of mean±SEM. The differences observed are considered significant when the values of p are less than 0.05. The test used is an ANOVA test with a multiple comparison test.
Compound 15 is dissolved in a water/mannitol mixture (50 mg/ml). Jump latency times are measured 10 min after the injections by intravenous route.
Compound 15 is dissolved in a ethanol/Cremophor® EL/water mixture. Jump latency times are measured 10 min after intravenous injection.
Compound 15 is dissolved in an ethanol/PEG400/water 10/40/50 mixture.
Compounds 15 and A are dissolved in an ethanol/Cremophor EL/water 10/10/80 mixture. Jump latency times are measured 10 min after intravenous injection.
The analgesia produced by morphine or compound 15 in mice (male OF1) in the hot plate test (52° C.) was measured. Morphine in H2O/NaCl, 9/1000) or compound 15 dissolved in the vehicle EtOH/Cremophor El/water (10/10/80) is injected by IV. The results are measured 10 minutes after injection and latency time is 240 seconds (equation given in examples 15 and 17).
The analgesia produced by Δ^9 THC in mice (male OF1) in the plate hot test (52° C.) was measured. Δ^9 THC, dissolved in the vehicle EtOH/Cremophor EL/water (10/10/80), is injected by IV route. The results are measured 10 minutes after injection and latency time is 240 seconds (equation given in examples 15 and 17).
This test relates to the licking and jumping reflex in mice on a plate heated at 52° C. The results are expressed in % of maximum possible effect (% MPE), i.e., expressed as a percentage of analgesia, using the following equation:
Maximum latency time=240 s.
The mice weigh 25-30 grams.
Jump latency is measured 10 minutes after intravenous injection.

[3] = test system: mice inoculated in their right paw with NCTC 2472 cells; assay: Osteosarcoma-induced thermal hyperalgesia, unilateral hot plate test; format: in vivo, mouse; conditions: for Antihyperalgesic effect when administered alone: compound 15 12.5 mg/kg 20 min before testing, or Gabapentin 6.25 mg/kg 60 min before testing
Description: The comparison and possible facilitation of compound 15 analgesic effect by Gabapentin was investigated on the animal model of bone cancer induced by intraosteal inoculation of NCTC2472 tumor cells (Honoré P. et al., Neuroscience 98 (2000), 585-588 Mendez L. et al. J. Neurosci. Methods 113 (2002), 91-97).
The methods used to measure the analgenisc effects (antihyperalgesia and allodynia) of various compounds of this animal model have been described in details and are used (Menendez L. et al. Brain Res. 969 (2003), 102-109) in these series of experiments.
Osteosarcoma-induced thermal hyperalgesia measured by the unilateral hot plate test was inhibited by the oral administration of compound 15 (25 mg/kg). This inhibitory effect peaked 20-40 min after compound 15 administration, disappearing at time 60 (FIG. 4A).
At this concentration the antagonist is unable to enter the brain supporting a peripheral analgesic effects of compound 15. ** p≦0.01. […]

[4] = Solubility in solvents; format: physicochemical
[5] = test system: male OF1 mice; assay: Hot plate test (52° C., jump latency) in mice; format: in vivo, mouse; conditions: after administration per os of 200 m/kg (FIG. 2b)
[6] = test system: rat (male Sprague Dawley) with an inflamed paw; assay: Vocalization threshold on paw pressure, carrageenan-inflamed paw; format: in vivo; conditions: 100 mg/kg per os, 180 min after carrageenan, measured 20 min after administration
Protocol: b) Antinociceptive effect of compound 15 (100 mg/kg par os) on vocalization threshold when pressure is applied to the paw of a rat (male Sprague Dawley) with an inflamed paw, inflammation being induced by intraplantar injection of carrageenan.
Compound 15 and a vehicle (ethanol/polyethylene glycol (PEG) 400/water, 10/40/50) are administered 180 min after intraplantar injection of carrageenan (1% in saline solution).
The baseline for vocalization threshold when pressure is applied to the paw is measured before inflammation (B) and for the inflamed paw 20 min after injection of compound 15 or the vehicle. The results are given in table 3 and are expressed as mean±SEM, n=10. The differences observed are considered significant when the values of p are less than 0.05.

[7] = 1 mg/kg IV, 10 min after injection (Table 6)
[8] = 2.5 mg/kg IV, 10 min after injection (Table 6)
[9] = 5 mg/kg IV, 10 min after injection (Table 6)
[10] = 5 mg/kg IV, ethanol/Cremophor EL/water 10/10/80, 10 min after injection (Table 5)

CSCCC(N)CSSCC(Cc1ccccc1)C(=O)NC(C(=O)OC(COC(C)=O)COC(C)=O)C(C)O.O=C(O)C(F)(F)F (centres unmarked) [Compound 12j, 1-(2-(1-(2-acetoxy-1-acetoxymethyl-thoxycarbonyl)-2-hydroxypropylcarbamoyl)-3-phenylpropyldisulfanylmethyl)-3-methylsulfanylpropyl-ammonium trifluoroacetate]
Log Kow [1]: 0.44

CSCCC(N)CSSCC(Cc1ccsc1)C(=O)NC(C)C(=O)OC(CO)CO.O=C(O)C(F)(F)F (centres unmarked) [Compound 12g, 1-(2-(1-(2-hydroxy-1-hydroxymethylethoxycarbonyl)-ethylcarbamoyl)-3-thiophen-3-ylpropyldisulfanylmethyl)-3-methylsulfanylpropyl-ammonium trifluoroacetate]
Log Kow [1]: −0.29

CN1CC[C@]23c4c5ccc(O)c4O[C@H]2[C@@H](O)C=C[C@H]3[C@H]1C5 [morphine, reference compound]
% analgesia [2, 7]: 45.5 ± 4.5 %
% analgesia [2, 8]: 66 ± 6.0 %
% analgesia [2, 9]: 100*** %
ED50 ([2]; iv, 10 min, read-out: ED50 (analgesic response)): 1.3 ± 0.2 mg/kg

CSCCC(N)CSSCC(Cc1ccsc1)C(=O)NC(C)C(=O)OCC(COC(C)=O)OC(C)=O.O=C(O)C(F)(F)F (centres unmarked) [Compound 12a, 1-(2-(1-(2,3-diacetoxypropoxycarbonyl)-ethylcarbamoyl)-3-thiophen-3-ylpropyldisulfanylmethyl)-3-methylsulfanylpropyl-ammonium trifluoroacetate]
Log Kow [1]: 1.31

1-(2-(1-(1-ethoxycarbonyloxyethoxycarbonyl)-2-hydroxypropylcarbamoyl)-3-thiophen-3-ylpropyldisulfanylmethyl)-3-methylsulfanylpropyl-ammonium trifluoroacetate [Compound 12e]
Log Kow [1]: 0.76

NCC1(CC(=O)O)CCCCC1 [Gabapentin]
Antihyperalgesic effect ([3]; 6.25 mg/kg i.p., 60 minutes after injection (FIG. 6B)): subeffective
Antihyperalgesic effect ([3]; 12.5 mg/kg i.p., 60 minutes after injection): significant antihyperalgesic effect
Antihyperalgesic effect ([3]; 25 mg/kg i.p., 40 and 60 min after injection (FIG. 6A)): clear antihyperalgesic effect
Withdrawal latencies ([3]; 25 mg/kg i.p., 20 min after administration): No modification of withdrawal latencies
Antihyperalgesic effect ([3]; 25 mg/kg i.p., 60 minutes after injection): completely suppressed the hyperalgesic effect
Withdrawal latencies of contralateral paws ([3]; 6.25-25 mg/kg i.p.): None of these doses of Gabapentin modified the withdrawal latencies of contralateral paws
Antihyperalgesic effect when administered alone [3]: do not produce any antihyperalgesic effect

CCCCCc1cc(O)c2c(c1)OC(C)(C)[C@@H]1CCC(C)=C[C@@H]21 [Δ^9 THC, Δ^9 tetrahydrocannabinol, reference compound]
% analgesia ([2]; 0.188 mg/kg IV, EtOH/Cremophor EL/water, 10 min after injection): 0.4 ± 3.9%
% analgesia ([2]; 0.375 mg/kg IV, EtOH/Cremophor EL/water, 10 min after injection): 18.2 ± 6.4%
% analgesia ([2]; 0.75 mg/kg IV, EtOH/Cremophor EL/water, 10 min after injection): 41.2 ± 12.7 %
% analgesia ([2]; 1.5 mg/kg IV, EtOH/Cremophor EL/water, 10 min after injection): 57.2 ± 10.9 %

CCOC(=O)OC(C)OC(=O)CNC(=O)C(CSSC[C@@H](N)CCSC)Cc1ccccc1 (some centres unmarked) [Compound 15]
Solubility in ethanol/Tween®/water solvents [4]: soluble
Persistence of analgesic effect [5]: at least two hours
% analgesia [2, 7]: 46.4 ± 5.6 %
% analgesia [2, 8]: 56.3 ± 6.9 %
% analgesia ([2]; 2.5 mg/kg IV, ethanol/Cremophor EL/water, 10 min after injection): 56.2 ± 6.9 %
% analgesia ([2]; 2.5 mg/kg IV, ethanol/Tween 20/water, 10 min after injection): 48.4 ± 10.2 %
% analgesia ([2]; 2.5 mg/kg IV, ethanol/Tween 80/water, 10 min after injection): 44.7 ± 6.2 %
% analgesia [2, 9]: 87.6 ± 4.6 %
% analgesia [2, 10]: 87.6 ± 4.6 %
% analgesia ([2]; 10 mg/kg IV, water/mannitol vehicle, 10 min after injection, male mice): 33.4 ± 7.5 %
% analgesia ([2]; 20 mg/kg IV, water/mannitol vehicle, 10 min after injection, male mice): 59.2 ± 9.6 %
% analgesia ([2]; 40 mg/kg IV, water/mannitol vehicle, 10 min after injection, male mice): 90.2 ± 7.0 %
ED50 ([2]; 10 min, IV, ethanol/Cremophor EL/water, 10 min after injection (FIG. 1), read-out: ED50 (analgesic response)): 1.9 ± 0.4 mg/kg
ED50 ([2]; 10 min, IV, water/mannitol vehicle, 10 min after injection, read-out: Effective dose 50, ED50): 16.1 mg/kg
ED50 ([2]; per os 20 min before test, ethanol/PEG400/water 10/40/50 (FIG. 2a), read-out: ED50 (analgesic effect)): 135 mg/kg
Vocalization threshold [6]: 292.5 ± 20.1 g
Time at which inhibitory effect disappears ([3]; 25 mg/kg oral): 60
Time of peak inhibitory effect after administration ([3]; 25 mg/kg oral): 20 to 40 min
Osteosarcoma-induced thermal hyperalgesia ([3]; 25 mg/kg oral (FIG. 4A)): inhibited
Antihyperalgesic effect in presence of naloxone-methiodide ([3]; 25 mg/kg p.o. 20 min before testing, naloxone-methiodide 2 mg/kg i.p. 20 min before testing (FIG. 5)): completely inhibited
Effect on thermal latencies, inoculated versus control paws ([3]; 25 mg/kg p.o., 20 min after administration (FIG. 4B)): exclusively increases the latencies measured in the inoculated right paws
Antihyperalgesic effect when administered alone [3]: do not produce any antihyperalgesic effect

CSCCC(N)CSSCC(Cc1ccsc1)C(=O)NC(C)C(=O)OC(COC(C)=O)COC(C)=O.O=C(O)C(F)(F)F (centres unmarked) [Compound 12f, 1-(2-(1-(2-acetoxy-1-acetoxymethylethoxycarbonyl)-ethylcarbamoyl)-3-thiophen-3-ylpropyldisulfanylmethyl)-3-methylsulfanylpropyl-ammonium trifluoroacetate]
Log Kow [1]: 1.31

CCOC(=O)OC(C)OC(=O)C(NC(=O)C(CSSCC(N)CCSC)Cc1ccccc1)C(C)O.O=C(O)C(F)(F)F (centres unmarked) [Compound 12i]
Log Kow [1]: 0.76

CSCCC(N)CSSCC(Cc1ccsc1)C(=O)NC(C)C(=O)OCC1OC(O)C(O)C(O)C1O.O=C(O)C(F)(F)F (centres unmarked) [Compound 12h, 1-(2-(1-(3,4,5,6-tetrahydroxytetrahydropyran-2-ylmethoxycarbonyl)ethylcarbamoyl)-3-thiophen-3-yl-propyldisulfanylmethyl)-3-methylsulfanylpropyl-ammonium trifluoroacetate]
Log Kow [1]: −1.15

1-(2-(1-ethoxycarbonylmethyloxycarbonylethylcarbamoyl)-3-thiophen-3-yl-propyldi sulfanylmethyl)-3-methylsulfanylpropyl-ammonium trifluoroacetate [Compound 12d]
Log Kow [1]: 1.35

CSCCC(N)CSSCC(Cc1ccsc1)C(=O)NC(C)C(=O)OCCS(C)(=O)=O.O=C(O)C(F)(F)F (centres unmarked) [Compound 12b, 1-(2-(1-(2-methanesulfonylethoxycarbonyl)-ethylcarbamoyl)-3-thiophen-3-ylpropyldisulfanylmethyl)-3-methylsulfanylpropyl-ammonium trifluoroacetate]
Log Kow [1]: −0.13

CSCCC(N)CSSCC(Cc1ccccc1)C(=O)NC(Cc1ccccc1)C(=O)OCc1ccccc1 (centres unmarked) [Compound A, reference compound]
Solubility in aqueous or hydrophilic solvents [4]: poorly soluble
% analgesia [2, 10]: 51.1 ± 7.6 %

CCOC(=O)OC(C)OC(=O)C(C)NC(=O)C(CSSCC(N)CCSC)Cc1ccsc1.O=C(O)C(F)(F)F (centres unmarked) [Compound 12c]
Log Kow [1]: 1.63

CCOC(=O)OC(C)OC(=O)CNC(=O)C(CSSCC(N)CCSC)Cc1ccccc1.O=C(O)C(F)(F)F (centres unmarked) [Compound 12k]
Log Kow [1]: 1.39
